Data set [1] relates to E. coli. Kind of data set: MIC by tube dilution method. Type of data set: cell-based. To be noted: 24 h at 37 °C.
Data set [2] has as its system S. aureus. The data set is described as follows: MIC by tube dilution method. Type of data set: cell-based. The note with it: 24 h at 37 °C.
Data set [3] has as its system S. enterica. Kind of data set: MIC by tube dilution method. Type of data set: cell-based. To be noted: 24 h at 37 °C.
The subject of data set [4] is B. subtilis. The data set is described as follows: MIC by tube dilution method. The data set is classed as cell-based. The note with it: 24 h at 37 °C.
The test system of data set [5] is K. pneumonia. Kind of data set: MIC by tube dilution method. Type of data set: cell-based. The note with it: Klebsiella pneumoniae, 24 h, 24 h at 37 °C, read-out: MIC.
Data set [6] concerns A. niger. The data set is described as follows: MIC by tube dilution method. Type of data set: cell-based. To be noted: 7 days at 25 °C.
The subject of data set [7] is A. fumigatus. The data set is described as follows: MIC by tube dilution method. Type of data set: cell-based. The note with it: 7 days at 25 °C.
Data set [8] relates to E. coli. Kind of data set: Minimum bactericidal concentration (MBC). The data set is classed as cell-based. To be noted: for MBC: Escherichia coli.
Data set [9] deals with S. aureus. The data set is described as follows: Minimum bactericidal concentration (MBC). Type of data set: cell-based. The note with it: for MBC: Staphylococcus aureus.
Data set [10] relates to S. enterica. The data set is described as follows: Minimum bactericidal concentration (MBC). The data set is classed as cell-based. To be noted: Salmonella enterica, read-out: MBC/MFC. The procedure: After MIC assessment, the indole derivatives (DS1–DS21), were additionally evaluated for MBC and MFC values. […] The 10–15 ml of nutrient agar and Sabouraud dextrose agar was added to the petri plates for bacterial and fungal samples respectively with gentle shaking of plates in order to mix the culture throughout the media. Allowed the media to solidify. The petri plates were then incubated for the predefined time and temperature as referenced already for bacterial and fungal cultures respectively. The plates were then investigated visually for the development of microbial growth. The MBC and MFC were stated as the minimum concentration of the compounds in aliquots showing no visual growth after incubation.

For data set [11], the system named is B. subtilis. The data set is described as follows: Minimum bactericidal concentration (MBC). Type of data set: cell-based. To be noted: for MBC: Bacillus subtilis.
Data set [12] concerns K. pneumonia. Kind of data set: Minimum bactericidal concentration (MBC). The data set is classed as cell-based. To be noted: for MBC: Klebsiella pneumoniae.
Data set [13] deals with A. niger. Kind of data set: Minimum fungicidal concentration (MFC). To be noted: for MFC: Aspergillus niger, read-out: MBC/MFC. Type of data set: cell-based.
Data set [14] deals with A. fumigatus. Kind of data set: Minimum fungicidal concentration (MFC). The note with it: for MFC: Aspergillus fumigatus, read-out: MBC/MFC. The data set is classed as cell-based.
The mark [15] stands for this setting: Escherichia coli, 24 h, read-out: MIC.
Where [16] appears, read: Staphylococcus aureus, read-out: MIC.
The mark [17] stands for this setting: Salmonella enterica, 24 h, read-out: MIC.
Setting [18] is: Bacillus subtilis, read-out: MIC.
[19] abbreviates: Aspergillus niger, 168 h, read-out: MIC.
The mark [20] stands for this setting: Aspergillus fumigatus, 168 h, read-out: MIC.

Values after ≈ are worked out from the molar mass of the structure shown. Where two headings read alike, the source gives them in different places.

As a reminder, the MIC is the smallest concentration in the dilution series that meets the test's criterion for growth inhibition. On to `C/C(=N/c1ccc(Cl)cc1[N+](=O)[O-])c1ccc(/N=N\c2c[nH]c3ccccc23)cc1` [DS-13, (Z)-N-(1-(4-((Z)-(1H-Indol-3-yl)diazenyl)phenyl)ethylidene)-4-chloro-2-nitroaniline], for which the MIC is 7.81 µg/mL (≈ 18.7 µM) in data set [1] (setting [15]); 62.5 µg/mL (≈ 150 µM) in [2] (setting [16]); 62.5 µg/mL (≈ 150 µM) in data set [3] (setting [17]); 62.5 µg/mL (≈ 150 µM) in data set [4] (setting [18]); 3.9 µg/mL (≈ 9.33 µM) in data set [5]; 62.5 µg/mL (≈ 150 µM) in data set [6] (setting [19]). Also, the minimal inhibitory concentration (MIC) in data set [7] (setting [20]) came to 31.2 µg/mL (≈ 74.8 µM). In addition, the MBC in [8] was 3.9 to 7.81 µg/mL (≈ 9.33 to 18.7 µM); in [9] it was 62.5 µg/mL (≈ 150 µM); in data set [10] it was 62.5 µg/mL (≈ 150 µM); in data set [11], 125 µg/mL (≈ 299 µM); in data set [12] it was 15.6 µg/mL (≈ 37.4 µM). The MFC in [13] and in data set [14] was 125 µg/mL (≈ 299 µM) in each case.

A word on the melting point: it is the temperature, or range, at which the solid turns liquid. As to `CC(=O)NS(=O)(=O)c1ccc(/N=C(/C)c2ccc(/N=N\c3c[nH]c4ccc([N+](=O)[O-])cc34)cc2)cc1` [DS-15, N-((4-((Z)-(1-(4-((Z)-(5-Nitro-1H-indol-3-yl)diazenyl)phenyl)ethylidene)amino)phenyl)sulfonyl)acetamide], the melting point was in the range of 110 to 115 °C. In addition, in data set [1] (setting [15]), the minimum inhibitory concentration (MIC) was determined as 15.6 µg/mL (≈ 31 µM). Also, the minimal inhibitory concentration (MIC) in [2] (setting [16]) worked out at 125 µg/mL (≈ 248 µM). Besides, the MIC in data set [3] (setting [17]) stood at 31.2 µg/mL (≈ 61.9 µM). For the same molecule, the MIC in [4] (setting [18]) was 31.2 µg/mL (≈ 61.9 µM). Besides, the MIC in [5] worked out at 3.9 µg/mL (≈ 7.73 µM). The minimal inhibitory concentration (MIC) in data set [6] (setting [19]) stood at 125 µg/mL (≈ 248 µM). Besides, in data set [7] (setting [20]), the MIC was determined as 62.5 µg/mL (≈ 124 µM). Moreover, the MBC in [8] is 125 µg/mL (≈ 248 µM). The molecule also had an MBC in [9] of 31.2 µg/mL (≈ 61.9 µM). Besides, the MBC in data set [10] (S. enterica, MBC) was 31.2 µg/mL (≈ 61.9 µM). The MBC in data set [11] was 62.5 µg/mL (≈ 124 µM). Moreover, the MBC in [12] came out at 31.2 µg/mL (≈ 61.9 µM). For the same molecule, the MFC in data set [13] came out at 125 µg/mL (≈ 248 µM). For the same molecule, the MFC in [14] is 125 µg/mL (≈ 248 µM).

On to `C/C(=N/c1ccc(F)cc1)c1ccc(/N=N\c2c[nH]c3ccc([N+](=O)[O-])cc23)cc1` [DS-16, (Z)-4-Fluoro-N-(1-(4-((Z)-(5-nitro-1H-indol-3-yl)diazenyl)phenyl)ethylidene)aniline], for which the melting point fell in the range of 150 to 152 °C. Further, the MIC in [1] (setting [15]) was determined as 15.6 µg/mL (≈ 38.9 µM). For the same molecule, the MIC in [2] (setting [16]) is 62.5 µg/mL (≈ 156 µM). The MIC in data set [3] (setting [17]) was 62.5 µg/mL (≈ 156 µM). Besides, the minimum inhibitory concentration (MIC) in [4] (setting [18]) amounted to 31.2 µg/mL (≈ 77.9 µM). Besides, the MIC in data set [5] came out at 7.81 µg/mL (≈ 19.5 µM). In addition, the MIC in data set [6] (setting [19]) worked out at 62.5 µg/mL (≈ 156 µM). The MIC in data set [7] (setting [20]) came to 31.2 µg/mL (≈ 77.9 µM). Further, the MBC in data set [8] amounted to 62.5 µg/mL (≈ 156 µM). Further, in data set [9], the MBC was 125 µg/mL (≈ 311 µM). Also, the MBC in data set [10] (S. enterica, MBC) is 62.5 µg/mL (≈ 156 µM). In data set [11], this molecule showed an MBC of 125 µg/mL (≈ 311 µM). The MBC in data set [12] is 31.2 µg/mL (≈ 77.9 µM). Further, the MFC in [13] stood at 125 µg/mL (≈ 311 µM). Moreover, the MFC in [14] worked out at 125 µg/mL (≈ 311 µM).

On to `C/C(=N/c1ncccn1)c1ccc(/N=N\c2c[nH]c3ccccc23)cc1` [DS-17, (Z)-N-(1-(4-((Z)-(1H-Indol-3-yl)diazenyl)phenyl)ethylidene)pyrimidin-2-amine], for which the melting point lay within 275 to 280 °C. Besides, the MIC in data set [1] (setting [15]) stood at 3.9 µg/mL (≈ 11.5 µM). The MIC in data set [2] (setting [16]) turned out to be 62.5 µg/mL (≈ 184 µM). Also, the MIC in data set [3] (setting [17]) was determined as 62.5 µg/mL (≈ 184 µM). In data set [4] (setting [18]), the minimum inhibitory concentration (MIC) came out at 125 µg/mL (≈ 367 µM). In addition, the minimal inhibitory concentration (MIC) in data set [5] is 7.81 µg/mL (≈ 22.9 µM). Also, in [6] (setting [19]), the MIC worked out at 62.5 µg/mL (≈ 184 µM). Further, the minimum inhibitory concentration (MIC) in data set [7] (setting [20]) amounted to 31.2 µg/mL (≈ 91.8 µM). For the same molecule, the MBC in data set [8] was 15.6 µg/mL (≈ 45.9 µM). The same molecule yielded an MBC in data set [9] of 62.5 µg/mL (≈ 184 µM). Moreover, the MBC in data set [10] (S. enterica, MBC) was found to be 62.5 µg/mL (≈ 184 µM). Also, the MBC in [11] was 62.5 µg/mL (≈ 184 µM). The MBC in [12] was 15.6 µg/mL (≈ 45.9 µM). Further, the MFC in data set [13] came out at 125 µg/mL (≈ 367 µM). The MFC in data set [14] worked out at 125 µg/mL (≈ 367 µM).

Turning to `C/C(=N/c1ccc(S(=O)(=O)Nc2ncccn2)cc1)c1ccc(/N=N\c2c[nH]c3ccccc23)cc1` [DS-19, 4-((Z)-(1-(4-((Z)-(1H-Indol-3-yl)diazenyl)phenyl)ethylidene)amino)-N-(pyrimidin-2-yl) benzenesulfonamide], the MIC in data set [1] was 7.81 µg/mL (≈ 15.8 µM); in data set [2], 31.25 µg/mL (≈ 63.1 µM); in [3], 62.5 µg/mL (≈ 126 µM); in [4], 31.25 µg/mL (≈ 63.1 µM); in data set [6], 31.25 µg/mL (≈ 63.1 µM); in data set [7] it was 31.25 µg/mL (≈ 63.1 µM). Besides, the MBC/MFC worked out at 62.5 µg/mL (≈ 126 µM) in data set [8]; 31.25 µg/mL (≈ 63.1 µM) in data set [9]; 125 µg/mL (≈ 252 µM) in [11]; 15.62 µg/mL (≈ 31.5 µM) in [12]; 125 µg/mL (≈ 252 µM) in [13]; 125 µg/mL (≈ 252 µM) in data set [14].

As to `OC(Cn1cncn1)(Cn1cncn1)c1ccc(F)cc1F` [FLU, fluconazole, reference compound], the minimum inhibitory concentration (MIC) in [6] (setting [19]) worked out at 31.2 µg/mL (≈ 102 µM); in [7] (setting [20]), 7.81 µg/mL (≈ 25.5 µM). The MFC in data set [13] and in data set [14] was 125 µg/mL (≈ 408 µM) in each case.

The values are drawn from publication PMC6661771, “Indole hybridized diazenyl derivatives: synthesis, antimicrobial activity, cytotoxicity evaluation and docking studies” (BMC Chemistry, 2019).
